Results published in ChEMBL document CHEMBL4732254, “Novel monocyclic amide-linked phenol derivatives without mitochondrial toxicity have potent uric acid-lowering activity” (Bioorg Med Chem Lett, 2021).
Active and inactive are the calls of the source. No cut-off for these calls is given here.

Columns and labels:
[1] = Inhibition of uric acid uptake in human RPTEC; format: functional, tissue-based
[2] = Hepatotoxicity assessed as induction of mitochondrial (unknown origin) toxicity by measuring mitochondrial inhibitory activity; conditions: mitochondria (unknown origin)
[3] = Hepatotoxicity assessed as induction of mitochondrial (unknown origin) toxicity by measuring mitochondrial inhibitory activity at 100 uM relative to control; conditions: mitochondria (unknown origin)
[4] = molecular target: T1, Solute carrier family 22 member 12 (Homo sapiens, UniProt Q96S37); assay: Inhibition of URAT1 (unknown origin)-mediated uric acid uptake at 3 uM relative to control
T1 sequence (Q96S37 whole entry): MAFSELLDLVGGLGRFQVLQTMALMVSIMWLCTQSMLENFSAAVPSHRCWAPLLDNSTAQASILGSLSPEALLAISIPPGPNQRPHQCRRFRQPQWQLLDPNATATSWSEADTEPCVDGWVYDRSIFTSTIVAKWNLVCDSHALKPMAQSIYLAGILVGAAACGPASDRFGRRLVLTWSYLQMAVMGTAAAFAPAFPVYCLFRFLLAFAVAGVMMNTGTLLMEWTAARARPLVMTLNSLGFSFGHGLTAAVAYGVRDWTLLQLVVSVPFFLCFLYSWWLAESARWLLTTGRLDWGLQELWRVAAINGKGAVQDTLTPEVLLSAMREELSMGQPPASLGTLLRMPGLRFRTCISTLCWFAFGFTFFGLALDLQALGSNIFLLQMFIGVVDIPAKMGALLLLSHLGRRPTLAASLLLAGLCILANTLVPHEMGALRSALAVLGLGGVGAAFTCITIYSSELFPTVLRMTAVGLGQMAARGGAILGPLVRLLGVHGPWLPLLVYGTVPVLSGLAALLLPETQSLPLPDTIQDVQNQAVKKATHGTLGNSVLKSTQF

[5] = Drug excretion in rat urine at 3 mg/kg, po measured for 4 hrs; format: ADME, organism-based; conditions: read-out: Drug excretion
Sapajus apella = assay: Uricosuric activity in Cebus apella assessed as decrease in plasma urate level at 300 mg/kg, po measured for 24 hrs; format: functional, organism-based
Cytochrome P450 2C9 = Cytochrome P450 2C9 (Homo sapiens, UniProt P11712); assay: Inhibition of CYP2C9 (unknown origin); format: ADME
Chain of Cytochrome P450 2C9 (P11712 whole entry): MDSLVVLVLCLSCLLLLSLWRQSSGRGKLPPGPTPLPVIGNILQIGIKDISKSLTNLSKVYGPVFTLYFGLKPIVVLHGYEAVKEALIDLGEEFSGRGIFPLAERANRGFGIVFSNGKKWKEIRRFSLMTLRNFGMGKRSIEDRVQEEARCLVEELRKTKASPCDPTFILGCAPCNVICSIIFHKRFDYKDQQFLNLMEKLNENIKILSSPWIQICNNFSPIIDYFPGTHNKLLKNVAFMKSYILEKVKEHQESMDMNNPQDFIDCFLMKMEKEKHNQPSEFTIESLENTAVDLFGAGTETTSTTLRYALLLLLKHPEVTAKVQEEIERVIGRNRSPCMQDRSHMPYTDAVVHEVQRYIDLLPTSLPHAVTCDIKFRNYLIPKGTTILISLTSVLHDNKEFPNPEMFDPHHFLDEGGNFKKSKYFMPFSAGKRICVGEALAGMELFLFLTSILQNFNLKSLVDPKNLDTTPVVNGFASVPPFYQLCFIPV

[6] = Cmax in rat at 3 mg/kg, po; format: ADME, organism-based; set-up: route oral, dose 3 mg/kg; conditions: in vivo

Row | SMILES | IC50 [1] [µM] | IC50 [2] [µM] | inhibition at 100 µM [3] [%] | inhibition at 3 µM [4] [%] | dose excreted at 4 h [5] [%] | Activity (Sapajus apella) | IC50 (Cytochrome P450 2C9) [µM] | Cmax [6] [ng/mL]
1 | CCc1cc(C(=O)N2CC=CC2)cc(C#N)c1O | > 1000 | > 100 | 17 | 54 |  |  |  | 
2 | N#Cc1cc(C(=O)N2CCS(=O)(=O)C2)cc(C(F)(F)F)c1O | 272 |  | -3 | 55 |  |  |  | 
3 | CCCc1cc(C(=O)N2CC=CC2)cc(C#N)c1O | > 1000 |  | 7 | 70 |  |  |  | 
4 | O=C(C1=CCCC1)c1cc(Cl)c(O)c(Cl)c1 |  | 10 |  |  |  |  |  | 
5 | N#Cc1cc(C(=O)N2CC=CC2)cc(Br)c1O | 747 |  | 0 | 69 |  |  |  | 
6 | CCc1cc(C(=O)N2CCSC2)cc(C#N)c1O | 124 |  | 25 | 67 | 9.5 |  |  | 
7 | N#Cc1cc(C(=O)N2CC=CC2)cc(Cl)c1O | > 1000 |  | 5 | 66 |  |  |  | 
8 | Cc1cc(C(=O)N2CC=CC2)cc(C#N)c1O | > 1000 |  | -10 | 25 |  |  |  | 
9 | CSc1cc(C(=O)N2CC=CC2)cc(C#N)c1O | > 1000 |  | 6 | 58 |  |  |  | 
10 | N#Cc1cc(C(=O)N2CCSC2)cc(Br)c1O | 401 |  | 23 | 72 |  |  |  | 
11 | CC(C)(C)c1cc(C(=O)N2CCSC2)cc(C#N)c1O | 257 | 27 | 77 | 92 |  |  |  | 
12 | N#Cc1cc(C(=O)N2CC=CC2)cc(C2CC2)c1O | > 1000 |  | -7 | 69 |  |  |  | 
13 | N#Cc1cc(C(=O)N2CC=CC2)cc(C(F)(F)F)c1O | 818 |  | -1 | 83 | 23 | Active | 52 | 2610
14 | CC1=CCN(C(=O)c2cc(C#N)c(O)c(C(F)(F)F)c2)C1 | 137 |  | 9 | 88 | 10 |  | 94 | 2220
15 | CCc1oc2ccccc2c1C(=O)c1cc(Br)c(O)c(Br)c1 [BENZBROMARONE] | 6.8 | 3.1 |  | 91 |  |  |  | 
16 | N#Cc1cc(C(=O)N2CC=CC2)cc(I)c1O | > 1000 |  | 8 | 79 |  |  |  | 
17 | CCc1cc(C(=O)n2cccc2)cc(C#N)c1O | > 1000 | 6.7 |  | 83 |  |  |  | 
18 | O=C(c1cc(Cl)c(O)c(Cl)c1)N1CS(=O)(=O)c2ccccc21 [DOTINURAD] |  |  |  |  |  |  | 5.7 | 
19 | CC(C)(C)c1cc(C(=O)N2CCCC2)cc(C#N)c1O | > 1000 | > 100 | 22 | 84 |  |  |  | 
20 | CCCc1cc(C(=O)N2CC=CC2)cc(C(F)(F)F)c1O | 903 |  | 47 | 49 |  |  |  | 
21 | N#Cc1cc(C(=O)N2CCSC2)cc(C(F)(F)F)c1O | 202 |  | 29 | 84 | 9 |  | > 100 | 3700
22 | N#Cc1cc(C(=O)N2CCC2)cc(C(F)(F)F)c1O | > 1000 |  | 17 | 75 |  |  |  | 
23 | O=C(c1cc(Br)c(O)c(Br)c1)N1CC=CC1 |  | > 100 | 22 |  |  |  |  | 
24 | N#Cc1cc(C(=O)N2CCSC2)cc(C#N)c1O | 614 |  | 23 | 62 |  |  |  | 
25 | CC(C)(C)c1cc(C(=O)N2CCC2)cc(C#N)c1O | > 1000 |  | 41 | 71 |  |  |  | 
26 | N#Cc1cc(C(=O)N2CCCC2)cc(C(F)(F)F)c1O | > 1000 |  | 18 | 66 |  |  |  | 
27 | O=C(C1=CCCC1)c1cc(Br)c(O)c(Br)c1 |  | 6.6 |  |  |  |  |  | 
28 | CC(C)(C)c1cc(C(=O)N2CC=CC2)cc(C#N)c1O | 311 | 64 | 60 | 92 |  |  |  | 
